# Measurements from PubChem BioAssay (NCI).
#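 A five-concentration, 48-hour dose response in 96-well plates underlies each endpoint, interpolated linearly between surrounding concentrations. Here, GI50 denotes the concentration required for 50% inhibition of growth. Definition used: TGI = concentration required for complete inhibition of growth.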
# What was measured:
# Assay in all cases: growth of human tumour cells (NCI), 48 h
# SK-MEL-28 melanoma = system: SK-MEL-28 melanoma
# SN12C renal = system: SN12C renal
# TK-10 renal = system: TK-10 renal
# SK-MEL-2 melanoma = system: SK-MEL-2 melanoma
# NCI-H226 lung = system: NCI-H226 lung
# EKVX NSCLC = system: EKVX NSCLC
# MCF7 breast = system: MCF7 breast
# HCC-2998 colon = system: HCC-2998 colon
# OVCAR-4 ovarian = system: OVCAR-4 ovarian
# MOLT-4 leukemia = system: MOLT-4 leukemia
# LOX IMVI melanoma = system: LOX IMVI melanoma
# MDA-MB-435 = system: MDA-MB-435
# UACC-62 melanoma = system: UACC-62 melanoma
# OVCAR-3 ovarian = system: OVCAR-3 ovarian
# UO-31 renal = system: UO-31 renal
# CAKI-1 renal = system: CAKI-1 renal
# HCT-15 colon = system: HCT-15 colon
# HL-60(TB) leukemia = system: HL-60(TB) leukemia
# NCI/ADR-RES ovarian = system: NCI/ADR-RES ovarian
# RXF 393 renal = system: RXF 393 renal
# K-562 leukemia = system: K-562 leukemia
# 786-0 renal = system: 786-0 renal
# RPMI-8226 leukemia = system: RPMI-8226 leukemia
# MDA-MB-231 breast = system: MDA-MB-231 breast
# SW-620 colon = system: SW-620 colon
# BT-549 breast = system: BT-549 breast
# ACHN renal = system: ACHN renal
# PC-3 prostate = system: PC-3 prostate
# HOP-92 NSCLC = system: HOP-92 NSCLC
# HS 578T breast = system: HS 578T breast
# UACC-257 melanoma = system: UACC-257 melanoma
# OVCAR-5 ovarian = system: OVCAR-5 ovarian
# CCRF-CEM leukemia = system: CCRF-CEM leukemia
# HCT-116 colon = system: HCT-116 colon
# SF-539 CNS = system: SF-539 CNS
# U251 CNS = system: U251 CNS
# SK-OV-3 ovarian = system: SK-OV-3 ovarian
# SNB-19 CNS = system: SNB-19 CNS
# NCI-H522 lung = system: NCI-H522 lung
# KM12 colon = system: KM12 colon
# OVCAR-8 ovarian = system: OVCAR-8 ovarian
# A498 renal = system: A498 renal
# COLO 205 colon = system: COLO 205 colon
# A549 NSCLC = system: A549 NSCLC
# HOP-62 NSCLC = system: HOP-62 NSCLC
# SF-268 CNS = system: SF-268 CNS
# SR leukemia = system: SR leukemia
# NCI-H23 lung = system: NCI-H23 lung
# SF-295 CNS = system: SF-295 CNS
# SK-MEL-5 melanoma = system: SK-MEL-5 melanoma
# M14 melanoma = system: M14 melanoma
# NCI-H460 lung = system: NCI-H460 lung
# IGROV1 ovarian = system: IGROV1 ovarian
# DU-145 prostate = system: DU-145 prostate
compound,measurement,setting,value
O[C@H]1C=C2[C@H](C[C@@H]1O)CN1C[C@H]2c2cc3c(cc21)OCO3,GI50,SK-MEL-28 melanoma,19 µM
same,TGI,SK-MEL-28 melanoma,87.7 µM
same,GI50,SN12C renal,18 µM
same,TGI,SN12C renal,58.9 µM
same,GI50,TK-10 renal,20.3 µM
same,TGI,TK-10 renal,76.6 µM
same,GI50,SK-MEL-2 melanoma,99.5 µM
same,TGI,SK-MEL-2 melanoma,> 100 µM
same,GI50,NCI-H226 lung,22.1 µM
same,TGI,NCI-H226 lung,70.3 µM
same,GI50,EKVX NSCLC,39.6 µM
same,TGI,EKVX NSCLC,> 100 µM
same,GI50,MCF7 breast,28.8 µM
same,TGI,MCF7 breast,> 100 µM
same,GI50,HCC-2998 colon,20.4 µM
same,TGI,HCC-2998 colon,56 µM
same,GI50,OVCAR-4 ovarian,32.7 µM
same,TGI,OVCAR-4 ovarian,73 µM
same,GI50,MOLT-4 leukemia,> 100 µM
same,TGI,MOLT-4 leukemia,> 100 µM
same,GI50,LOX IMVI melanoma,18.7 µM
same,TGI,LOX IMVI melanoma,55.5 µM
same,GI50,MDA-MB-435,20.1 µM
same,TGI,MDA-MB-435,90.4 µM
same,GI50,UACC-62 melanoma,22.1 µM
same,TGI,UACC-62 melanoma,96.2 µM
same,GI50,OVCAR-3 ovarian,42.1 µM
same,TGI,OVCAR-3 ovarian,84.6 µM
same,GI50,UO-31 renal,61.2 µM
same,TGI,UO-31 renal,> 100 µM
same,GI50,CAKI-1 renal,23.5 µM
same,TGI,CAKI-1 renal,61.1 µM
same,GI50,HCT-15 colon,30.1 µM
same,TGI,HCT-15 colon,> 100 µM
same,GI50,HL-60(TB) leukemia,23.3 µM
same,TGI,HL-60(TB) leukemia,87.5 µM
same,GI50,NCI/ADR-RES ovarian,70.5 µM
same,TGI,NCI/ADR-RES ovarian,> 100 µM
same,GI50,RXF 393 renal,50.3 µM
same,TGI,RXF 393 renal,> 100 µM
same,GI50,K-562 leukemia,49.9 µM
same,TGI,K-562 leukemia,> 100 µM
same,GI50,786-0 renal,25.5 µM
same,TGI,786-0 renal,> 100 µM
same,GI50,RPMI-8226 leukemia,35.8 µM
same,TGI,RPMI-8226 leukemia,> 100 µM
same,GI50,MDA-MB-231 breast,33 µM
same,TGI,MDA-MB-231 breast,> 100 µM
same,GI50,SW-620 colon,49.1 µM
same,TGI,SW-620 colon,> 100 µM
same,GI50,BT-549 breast,37.8 µM
same,TGI,BT-549 breast,> 100 µM
same,GI50,ACHN renal,8.92 µM
same,TGI,ACHN renal,36.3 µM
same,GI50,PC-3 prostate,49.1 µM
same,TGI,PC-3 prostate,> 100 µM
same,GI50,HOP-92 NSCLC,83.1 µM
same,TGI,HOP-92 NSCLC,> 100 µM
same,GI50,HS 578T breast,79.9 µM
same,TGI,HS 578T breast,> 100 µM
same,GI50,UACC-257 melanoma,41.6 µM
same,TGI,UACC-257 melanoma,> 100 µM
same,GI50,OVCAR-5 ovarian,30.2 µM
same,TGI,OVCAR-5 ovarian,> 100 µM
same,GI50,CCRF-CEM leukemia,> 100 µM
same,TGI,CCRF-CEM leukemia,> 100 µM
same,GI50,HCT-116 colon,21.6 µM
same,TGI,HCT-116 colon,> 100 µM
same,GI50,SF-539 CNS,22.4 µM
same,TGI,SF-539 CNS,80.2 µM
same,GI50,U251 CNS,27.6 µM
same,TGI,U251 CNS,94.1 µM
same,GI50,SK-OV-3 ovarian,6.15 µM
same,TGI,SK-OV-3 ovarian,51.1 µM
same,GI50,SNB-19 CNS,24.9 µM
same,TGI,SNB-19 CNS,> 100 µM
same,GI50,NCI-H522 lung,94.5 µM
same,TGI,NCI-H522 lung,> 100 µM
same,GI50,KM12 colon,23.4 µM
same,TGI,KM12 colon,> 100 µM
same,GI50,OVCAR-8 ovarian,30.2 µM
same,TGI,OVCAR-8 ovarian,> 100 µM
same,GI50,A498 renal,81.8 µM
same,TGI,A498 renal,> 100 µM
same,GI50,COLO 205 colon,21.4 µM
same,TGI,COLO 205 colon,> 100 µM
same,GI50,A549 NSCLC,28.2 µM
same,TGI,A549 NSCLC,88.8 µM
same,GI50,HOP-62 NSCLC,30.5 µM
same,TGI,HOP-62 NSCLC,> 100 µM
same,GI50,SF-268 CNS,25.4 µM
same,TGI,SF-268 CNS,86.5 µM
same,GI50,SR leukemia,41 µM
same,TGI,SR leukemia,> 100 µM
same,GI50,NCI-H23 lung,29.3 µM
same,TGI,NCI-H23 lung,96.6 µM
same,GI50,SF-295 CNS,15.1 µM
same,TGI,SF-295 CNS,67.2 µM
same,GI50,SK-MEL-5 melanoma,29.4 µM
same,TGI,SK-MEL-5 melanoma,> 100 µM
same,GI50,M14 melanoma,24.9 µM
same,TGI,M14 melanoma,> 100 µM
same,GI50,NCI-H460 lung,21.7 µM
same,TGI,NCI-H460 lung,> 100 µM
same,GI50,IGROV1 ovarian,62 µM
same,TGI,IGROV1 ovarian,> 100 µM
same,GI50,DU-145 prostate,19 µM
same,TGI,DU-145 prostate,> 100 µM
